Structures are written as SMILES.

This test deals with MlaFEDB (Escherichia coli, UniProt P63386). As to conditions: pH 8.0, 5 mM MgCl2, 150 mM NaCl, 0.5 mM DDM micelles; Hill n = 1.81 ± 0.35.
MlaFEDB, sequence (P63386 whole entry): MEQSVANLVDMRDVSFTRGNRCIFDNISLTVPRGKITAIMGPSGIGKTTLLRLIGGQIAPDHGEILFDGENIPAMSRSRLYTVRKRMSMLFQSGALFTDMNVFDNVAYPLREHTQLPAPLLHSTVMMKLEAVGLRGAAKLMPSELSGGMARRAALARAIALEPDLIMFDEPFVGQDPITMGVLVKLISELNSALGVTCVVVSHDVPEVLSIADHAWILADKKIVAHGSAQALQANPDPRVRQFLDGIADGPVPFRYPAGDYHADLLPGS
MlaFEDB, sequence (P64606 whole entry partner): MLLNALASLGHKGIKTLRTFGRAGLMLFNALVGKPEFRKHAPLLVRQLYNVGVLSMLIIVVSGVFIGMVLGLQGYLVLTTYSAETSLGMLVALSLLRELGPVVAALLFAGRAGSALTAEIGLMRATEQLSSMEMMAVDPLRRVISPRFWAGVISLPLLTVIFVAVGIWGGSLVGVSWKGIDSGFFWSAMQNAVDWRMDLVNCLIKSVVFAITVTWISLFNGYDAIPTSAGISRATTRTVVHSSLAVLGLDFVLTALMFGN
MlaFEDB, sequence (P64604 whole entry partner): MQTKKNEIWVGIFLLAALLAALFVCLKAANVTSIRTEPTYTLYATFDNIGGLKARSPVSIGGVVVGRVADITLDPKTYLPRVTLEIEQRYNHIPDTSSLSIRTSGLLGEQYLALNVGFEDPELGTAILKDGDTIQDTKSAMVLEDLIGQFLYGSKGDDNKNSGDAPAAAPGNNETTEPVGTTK
MlaFEDB, sequence (P64602 whole entry partner): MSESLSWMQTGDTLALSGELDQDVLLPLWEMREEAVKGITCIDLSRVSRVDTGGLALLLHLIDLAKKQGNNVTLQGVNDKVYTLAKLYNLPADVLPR

Turning to `Nc1ncnc2c1ncn2[C@@H]1O[C@H](COP(=O)(O)OP(=O)(O)OP(=O)(O)O)[C@@H](O)[C@H]1O` [ATP], the Km was 200 ± 44.6 µM.

These data come from article doi:10.1101/2020.06.06.138008v1 (biorxiv, 2020).
